Measurements from patent US9228202B2, “Intracellular viral vector delivery method employing iron ion/viral vector composite” (POSTECH ACADEMY-INDUSTRY FOUNDATION, priority 2009, dated 2016).

Experiments:
rBMSC [1] = experiment: Comparison of intracellular delivery of adenoviral vector among ferrous, ferric and calcium ions; format: cell-based, rat; conditions: rAd/EGFP 30 MOI with 50 μM cation
Method: To examine whether ferric irons (Fe^3+) improve the delivery of […] into cells, the adenoviral vector rAd/EGFP, which carries a GFP (green fluorescent protein) gene, was employed. First, 30 or 100 MOI of rAd/EGFP was mixed and incubated with 2 μM, 10 μM or 50 μM ferric ions for 30 min at room temperature, followed by infection for 2 hours into rat bone marrow mesenchymal stem cells (rBMSC), the human cervical cancer cell line HeLa, and the human amelanotic melanoma cell line (A375), all free from the expression of CAR, a primary receptor for adenoviruses. Then, the viral mixture was removed and the medium was changed with DMEM before incubation for two days in a CO2 incubator (CO2 water Jacketed Incubator, Form a Scientific™). The cells were detached by trypsinization and analyzed for intracellular GFP level using FACS (fluorescence activated cell sorter, BD).
Ferrous and ferric ions were compared with calcium ions, known to improve the gene delivery of adenoviral vectors, for efficacy of gene delivery. In this regard, rBMSC was treated with rAd/EGFP (30 MOI) and 50 μM cations (Fe^2+, Fe^3+, Ca^2+) in the same manner as in Example 1, and the efficacy of gene delivery was compared among the cations.

rBMSC [2] = experiment: Cytotoxicity assay of ferric ions (CCK8 cell viability); format: cell-based, rat
Method: A cytotoxicity assay was done with rBMSC in order to evaluate the safety of ferric ions alone or the ferric ion/adenoviral vector composite to the body. rBMSC was incubated for 2 hours with 0.2 μM˜50 mM ferric ions alone or in combination with 100 MOI of an adenoviral vector. On the next day, cell viability was determined using a CCK8 kit (DOJINDO, Japan).

Question: For [Fe+3] [ferric ions], which “gene delivery efficiency relative to calcium ions” value (rBMSC [1]) is on record?
Answer: 60 times

Question: What about the “50% cell viability concentration relative to the iron ion concentration used for gene delivery (10~50 μM)” value (rBMSC [2]) of the same molecule?
Answer: 1000 fold

Question: And the “iron ion concentration at which cytotoxicity starts” value (rBMSC [2]; 2 h incubation, CCK8 next day)?
Answer: 10 mM

Question: What about the cell viability (rBMSC [2]; iron ion concentration of 50 mM, CCK8) of the same molecule?
Answer: decreased to zero

Question: For [Fe+2] [ferrous ions], which “gene delivery efficiency relative to calcium ions” value (rBMSC [1]) is on record?
Answer: 60 times
